Measurements reported in US20210038579A1, “Treatment Of Patients With Classic Fabry Disease” (Amicus Therapeutics, Inc., priority 2018, published 2021).
Substitutions are numbered along the chain they refer to.

How the values were obtained:
Assay in all cases: HEK assay: α-Gal A activity in HEK-293 cell lysate with migalastat
Format in all cases: cell-based
[1] = target: T1, α-Gal A mutant form p.Met187Ile (c.561 G > A) (Homo sapiens, UniProt P06280, M187I)
T1 construct: expressed in transfected cells; host or cells: HEK-293
T1 sequence (P06280 32-429 M187I): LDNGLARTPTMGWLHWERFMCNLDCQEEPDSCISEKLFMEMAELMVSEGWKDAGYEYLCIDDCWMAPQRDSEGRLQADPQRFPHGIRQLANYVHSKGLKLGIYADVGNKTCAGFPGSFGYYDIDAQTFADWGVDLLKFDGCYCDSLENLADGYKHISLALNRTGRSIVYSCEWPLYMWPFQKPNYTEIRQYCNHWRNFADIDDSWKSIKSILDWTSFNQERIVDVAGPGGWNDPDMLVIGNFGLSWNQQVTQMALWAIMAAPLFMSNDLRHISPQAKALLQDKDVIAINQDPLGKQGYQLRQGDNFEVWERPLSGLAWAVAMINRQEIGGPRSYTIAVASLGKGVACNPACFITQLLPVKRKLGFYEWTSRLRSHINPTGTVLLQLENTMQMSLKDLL
Protocol: (§1) Such mutations are also referred to herein as “HEK assay amenable” mutations.
(§2) In this assay, cDNA constructs are created. The corresponding α-Gal A mutant forms are transiently expressed in HEK-293 cells. Cells are then incubated±migalastat (17 nM to 1 mM) for 4 to 5 days. After, α-Gal A levels are measured in cell lysates using a synthetic fluorogenic substrate (4-MU-α-Gal) or by western blot. This has been done for known disease-causing missense or small in-frame insertion/deletion mutations.

[2] = target: T2, α-Gal A mutant form p.Gly271Ser; Asp313Tyr (c.811 G > A; c.937 G > T) (Homo sapiens, UniProt P06280, D313Y/G271S)
T2 construct: expressed in transfected cells; host or cells: HEK-293
T2 sequence (P06280 32-429 G271S/D313Y): T1 sequence (P06280 32-429 M187I) with I156M, G240S, D282Y
Protocol: as §1, §2

[3] = target: T3, α-Gal A mutant form p.Ile270Thr (c.809 T > C) (Homo sapiens, UniProt P06280, I270T)
T3 construct: expressed in transfected cells; host or cells: HEK-293
T3 sequence (P06280 32-429 I270T): T1 sequence (P06280 32-429 M187I) with I156M, I239T
Protocol: as §1, §2

[4] = target: T4, α-Gal A mutant form p.Asp55Val/Glu57Leu (c.164 A > T; c.170 A > T) (Homo sapiens, UniProt P06280, D55V/Q57L)
T4 construct: expressed in transfected cells; host or cells: HEK-293
T4 sequence (P06280 32-429 D55V/Q57L): T1 sequence (P06280 32-429 M187I) with D24V, Q26L, I156M
Protocol: as §1, §2

[5] = target: T5, α-Gal A mutant form p.Gly260Ala (c.779 G > C) (Homo sapiens, UniProt P06280, G260A)
T5 construct: expressed in transfected cells; host or cells: HEK-293
T5 sequence (P06280 32-429 G260A): T1 sequence (P06280 32-429 M187I) with I156M, G229A
Protocol: as §1, §2

[6] = +10 μM migalastat, HEK-293 cell lysate, mean ± SEM, n = 20
[7] = HEK293, 10 μM migalastat minus baseline, read-out: Absolute increase at 10 μM (% WT)

## OC[C@H]1NC[C@H](O)[C@@H](O)[C@H]1O [migalastat]
[1]; 10 μM migalastat
  α-Gal A activity at 10 μM (fold over baseline): 6.10 fold over baseline
[1]; [6]
  +Migalastat α-Gal A activity: 10824 ± 555 nmol/mg/h
  +Migalastat α-Gal A activity % WT: 30.7 ± 1.1 % WT
[1]; [7]
  activation at 10 µM: 25.6%
[2]; 10 μM migalastat minus baseline
  Absolute increase at 10 μM (% WT): 3.0 % WT
[2]; [6]
  +Migalastat α-Gal A activity: 877 ± 18 nmol/mg/h
  +Migalastat α-Gal A activity % WT: 3.0 ± 0.2 % WT
[3]; 10 μM migalastat
  α-Gal A activity at 10 μM (fold over baseline): 6.73 fold over baseline
[3]; [6]
  +Migalastat α-Gal A activity: 12416 ± 377 nmol/mg/h
  +Migalastat α-Gal A activity % WT: 42.8 ± 3.0 % WT
[3]; [7]
  activation at 10 µM: 36.5%
[4]; 10 μM migalastat minus baseline, read-out: Absolute increase at 10 μM (% WT)
  activation at 10 µM: 8%
[4]; [6]
  +Migalastat α-Gal A activity: 2526 ± 287 nmol/mg/h
  +Migalastat α-Gal A activity % WT: 8.0 ± 0.5 % WT
[5]; 10 μM migalastat
  α-Gal A activity at 10 μM (fold over baseline): 4.84 fold over baseline
[5]; [6]
  +Migalastat α-Gal A activity: 10749 ± 403 nmol/mg/h
  +Migalastat α-Gal A activity % WT: 37.4 ± 3.1 % WT
[5]; [7]
  activation at 10 µM: 29.9%
